Laboratory results published in US4933347A, “Diamidines and bis(imidazolines) for the treatment of and prophylaxis against pneumocystis carinii pneumonia” (University of North Carolina at Chapel Hill, priority 1988, dated 1990).
“Also recorded” adds a separate entry of the source.

Test system: Pneumocystis carinii
Assay: Treatment of Pneumocystis carinii pneumonia in Sprague-Dawley rats (extent of disease by histologic score)
Assay type: in vivo, male Sprague-Dawley rats
Settings: for Extent of Disease by Histologic Score: number of animals with score 0.5 / Extent of disease by histologic score (combined): number of animals in scoring group 0.5: 0.5 = <10 cysts found per 2 sections; for Extent of Disease by Histologic Score: number of animals with score 1 / Extent of disease by histologic score (combined): number of animals in scoring group 1: 1 = scattered cysts, <5% of lung involved; for Extent of Disease by Histologic Score: number of animals with score 2 / Extent of disease by histologic score (combined): number of animals in scoring group 2: 2 = scattered cysts; for Extent of Disease by Histologic Score: number of animals with score 2: 5-10% lung involved or small foci of infection; for Extent of Disease by Histologic Score: number of animals with score 3 / Extent of disease by histologic score (combined): number of animals in scoring group 3: 3 = scattered cysts; for Extent of disease by histologic score (combined): number of animals in scoring group 0.5 / Extent of disease by histologic score (combined): number of animals in scoring group 1 / Extent of disease by histologic score (combined): number of animals in scoring group 2 / Extent of disease by histologic score (combined): number of animals in scoring group 3 / Extent of disease by histologic score (combined): number of animals in scoring group 4: Table XII composite, 10 mg/kg; for Extent of disease by histologic score (combined): number of animals in scoring group 2: 5-10% of lung involved
Method: Induction and Treatment Of Pneumocystis Carinii in Sprague-Dawley Rats
Male Sprague-Dawley rats, barrier raised, non-certified virus free, weighing 150-200g were obtained from Hilltop Laboratories and housed individually. Animals were begun on a low (8%) protein diet (ICN Biomedicals, Cincinnati, OH) and drinking water containing tetracycline (0.5 mg/ml) and dexamethasone (1.0 μg/ml) immediately upon arrival. This treatment was given for the next 8 weeks, monitoring fluid intake daily and weighing animals weekly. Dilutions of the drinking solution were made when animals consumed too much fluid so as to prevent cortisone poisoning. At the beginning of the sixth week, animals were divided into groups of 8 animals each and the test compounds were administered daily by i.v. injection at a dose of 10 mg/kg, unless otherwise noted, for the next 14 days.
Animals were sacrificed at the end of the eighth week by chloroform inhalation and the left lung was removed aseptically and placed in sterile Hank's balanced salts solution without calcium or magnesium (HBSS-) for the ground tissue procedure. The right lung was inflated in situ with 10% […] and removed for histologic examination GMS staining. […]

[1] = 10 mg/kg i.v. daily, 14 days, 10-50% of lung involved with some intense areas of infection
[2] = 10 mg/kg i.v. daily, 14 days, 4 = >50% of lung involved with many intense areas of focal infection
[3] = 10 mg/kg unless otherwise noted

Row | Structure (SMILES) | Extent of Disease by Histologic Score: number of animals with score 0.5 (10 mg/kg i.v. daily, 14 days) | Extent of Disease by Histologic Score: number of animals with score 1 (10 mg/kg i.v. daily, 14 days) | Extent of Disease by Histologic Score: number of animals with score 2 (10 mg/kg i.v. daily, 14 days) | Extent of Disease by Histologic Score: number of animals with score 3 [1] | Extent of Disease by Histologic Score: number of animals with score 4 [2] | Efficacy in treating PCP compared with control [3] | Efficacy in treating PCP compared with pentamidine [3] | Extent of disease by histologic score (combined): number of animals in scoring group 0.5 | Extent of disease by histologic score (combined): number of animals in scoring group 1 | Extent of disease by histologic score (combined): number of animals in scoring group 2 | Extent of disease by histologic score (combined): number of animals in scoring group 3 (10-50% of lung involved) | Extent of disease by histologic score (combined): number of animals in scoring group 4 (4 = >50% of lung involved) | further results
1 | N=C(N)c1ccc(OCCCOc2ccc(C(=N)N)cc2N)c(N)c1 [Example 5] | 2 animals | 4 animals | 1 animals | 0 animals | 0 animals | significantly better than the control | approximately comparable to pentamidine in efficacy | 2 animals | 4 animals | 1 animals | 0 animals | 0 animals | –
2 | N=C(N)c1ccc(OCCCCOc2ccc(C(=N)N)cc2)cc1 [Example 9, butamidine] | – | – | 0 animals | 0 animals | 0 animals | – | significantly better than pentamidine in controlling pcp; also recorded: significantly better than pentamidine at the 10 mg/kg dosage level | 8 animals | 0 animals | 0 animals | 0 animals | 0 animals | Extent of Disease by Histologic Score: number of animals with score 0.5 (0.1 mg/kg): 0 animals; Extent of Disease by Histologic Score: number of animals with score 1 (0.1 mg/kg): 0 animals; Extent of Disease by Histologic Score: number of animals with score 2 (0.1 mg/kg): 4 animals; Extent of Disease by Histologic Score: number of animals with score 3 (0.1 mg/kg, 10-50% of lung involved): 5 animals; Extent of Disease by Histologic Score: number of animals with score 4 (0.1 mg/kg, 4 = >50% of lung involved): 2 animals; Efficacy in treating PCP compared with pentamidine (1 mg/kg or 0.1 mg/kg): essentially no difference in the two compounds; Extent of Disease by Histologic Score: number of animals with score 0.5 (1 mg/kg): 0 animals; Extent of Disease by Histologic Score: number of animals with score 1 (1 mg/kg): 1 animals; Extent of Disease by Histologic Score: number of animals with score 2 (1 mg/kg): 3 animals; Extent of Disease by Histologic Score: number of animals with score 3 (1 mg/kg, 10-50% of lung involved): 5 animals; Extent of Disease by Histologic Score: number of animals with score 4 (1 mg/kg, 4 = >50% of lung involved): 3 animals
3 | N=C(N)c1ccc(NCCNc2ccc(C(=N)N)cc2N)c(N)c1 [Example 33] | 0 animals | 0 animals | 4 animals | 3 animals | 1 animals | better than the control | worse than pentamidine | 0 animals | 0 animals | 4 animals | 3 animals | 1 animals | –
4 | N=C(N)c1ccc(NCCCNc2ccc(C(=N)N)cc2N)c(N)c1 [Example 36] | 1 animals | 4 animals | 2 animals | 0 animals | 0 animals | – | – | 1 animals | 4 animals | 2 animals | 0 animals | 0 animals | Efficacy in treating PCP compared with related compounds of the series (effect of chain length or substituent): better than the nitro substituted compounds
